Assay results as given in patent US3996361A, “N^6 -Substituted-9-[3-(4-phenyl-piperazino)-propyl]-adenines” (Boehringer Mannheim G.m.b.H., priority 1974, dated 1976).

System: PCA reaction induced by reaginic (IgE-like) antibodies to egg albumin
Test: inhibition of the passive cutaneous anaphylactic (PCA) reaction in rats induced by reaginic antibodies to egg albumin
Format: in vivo, rat
Protocol: Diethylcarbamazin, i.e. 1-diethylcarbamoyl-4-methylpiperazine, was used as a comparison compound. Specifically, tests were run as follows:
Serum containing reaginic (IgE-like) antibody to egg albumin was prepared by injecting rats intramuscularly with 0.1 ml of a solution of the antigen (10 mg/ml) in saline together with 0.5 ml of Bordetella pertussis vaccine (Behring; 2 × 10^10 organisms/ml). 9-14 Days later the animals were bled from the abdominal aorta; the serum was pooled and stored at -20° C until required. The titer of the serum, i.e. the highest dilution inducing passive cutaneous anaphylaxis (PCA) in the rat following a 48-hour latent period, was between 1:8 and 1:32. For use in these experiments the serum was diluted 1:24.
The animals were anesthetized with 2,2-dichloro-1,1-difluoroethyl-methyl ether, sold under the trademark Penthrane, and were sensitized by injecting 0.1 ml of the antiserum into the shaved abdominal flanks. After 48 hours for reaginic PCA, the animals were given an intravenous injection of 1 ml of saline solution containing 0.5% by weight of egg albumin and 0.25% by weight of Evans blue.
After having killed and exsanguinated the animals, the size in square millimeters and the intensity, in arbitary scores, of the resulting blue spot were determined. The product of these two parameters was used to determine the degree of the reaction and the degree of reaction with no active material was taken as the standard against which to measure % inhibition of the anaphylactic reaction.
6 Animals were used per dose level and for control.
In some instances the test material was injected intravenously (i.v.) immediately before the antigen, using a solution in water containing 0.5% HCl and 2% of dimethylformamide, and in other instances intraperitoneally (i.p.) 20 minutes before the antigen, using a suspension in water containing 1% of methylcellulose. The volume of the injection was varied to give the indicated dosage of active material.

[1] = 3 mg/kg i.p. 20 min. before antigen (ovalbumin 5 mg/animal i.v.)
[2] = 3 mg/kg i.v. immediately before antigen (ovalbumin 5 mg/animal i.v.)

Compound | % Inhibition of PCA, i.p. (60 mg/kg i.p. 20 min. before antigen (ovalbumin 5 mg/animal i.v.)) | % Inhibition of PCA, i.v. (60 mg/kg i.v. immediately before antigen (ovalbumin 5 mg/animal i.v.)) | % Inhibition of PCA, i.p. [1] | % Inhibition of PCA, i.v. [2]
CCN(CC)C(=O)N1CCN(C)CC1 [Diethylcarbamazin, 1-diethylcarbamoyl-4-methylpiperazine, reference compound] | 19% | 58% | – | –
CCCCNc1ncnc2c1ncn2CCCN1CCN(c2ccccc2)CC1 [Ex. 1 (ab), N^6-n-butyl-9-[3-(4-phenyl-piperazino)-propyl]-adenine] | – | – | 69% | –
CCNc1ncnc2c1ncn2CCCN1CCN(c2ccccc2)CC1 [Ex. 1 (d), N^6-ethyl-9-[3-(4-phenyl-piperazino)-propyl]-adenine] | – | – | 41% | 91%
CNc1ncnc2c1ncn2CCCN1CCN(c2ccc(F)cc2)CC1 [Ex. 1 (q), N^6-methyl-9-{3-[4-(4-fluorophenyl)-piperazino]-propyl}-adenine] | – | – | 57% | –
CNc1ncnc2c1ncn2CCCN1CCN(c2ccc(C)cc2)CC1 [Ex. 1 (y), N^6-methyl-9-{3-[4-(4-methylphenyl)-piperazino]-propyl}-adenine] | – | – | 33% | 61%
CCCNc1ncnc2c1ncn2CCCN1CCN(c2ccccc2)CC1 [Ex. 2, N^6-n-Propyl-9-[3-(4-phenyl-piperazino)-propyl]-adenine] | – | – | 59% | 83%
